“And” between values parts separate entries of the source, which are not always exact repeats. Identical values can stand only once. “Also recorded” adds a separate entry of the source. Like-named read-outs stand apart in the source and are kept apart here.
B1: Asialofetuin (ASF) from fetal calf serum Type 1 (natural protein, bovine (from fetal calf serum), UniProt P12763 19-359, looked up)
chain: IPLDPVAGYKEPACDDPDTEQAALAAVDYINKHLPRGYKHTLNQIDSVKVWPRRPTGEVYDIEIDTLETTCHVLDPTPLANCSVRQQTQHAVEGDCDIHVLKQDGQFSVLFTKCDSSPDSAEDVRKLCPDCPLLAPLNDSRVVHAVEVALATFNAESNGSYLQLVEISRAQFVPLPVSVSVEFAVAATDCIAKEVVDPTKCNLLAEKQYGFCKGSVIQKALGGEDVRVTCTLFQTQPVIPQPQPDGAEAEAPSAVPDAAGPTPSAAGPPVASVVVGPSVVAVPLPLHRAHYDLRHTFSGVASVESSSGEAFHVGKTPIVGQPSIPGGPVRLCPGRIRYFKI
modifications: desialylated glycoprotein with three triantennary LacNAc presentations (glycan valency of nine)

What was measured:
Gal-1 (Galectin-1) [1] = molecular target: T1, Gal-1 (Galectin-1) (Homo sapiens, UniProt P09382); experiment: Isothermal titration calorimetry, binding to Gal-1; conditions: for Kd in HEPES buffer (values not given): HEPES buffer containing 0.05% Tween-20, control titrations; for Gal-1 binding affinity in words: ITC in solution; for Gal-1 binding affinity in words / −TΔS / −ΔG / −ΔH: phosphate buffer pH 7.2; for n-value: rounded/summary values in text, Gal-1 treated as a dimer for concentration input
his-tagged Gal-1 = his-tagged Gal-1 (Homo sapiens, UniProt P09382); experiment: Isothermal titration calorimetry, binding to his-tagged Gal-1; conditions: for agreement of titrations: his-tagged Gal-1 vs Gal-1 and previously reported value, ref [40]; for n (binding stoichiometry): lectin treated as a dimer
Gal-3 (Galectin-3) [2] = molecular target: T2, Gal-3 (Galectin-3) (Homo sapiens, UniProt P17931); experiment: Binding to Gal-3; conditions: Gal-3 affinity greater than Gal-1 (Table 1 and Fig. S15)
Gal-1 (Galectin-1) [3] = molecular target: T1, Gal-1 (Galectin-1); conditions: in solution, isothermal titration calorimetry, ref [16]; cited from earlier work
Gal-3 (Galectin-3) [4] = molecular target: T2, Gal-3 (Galectin-3); conditions: ref [34]; cited from earlier work
Gal-1 = conditions: glycan microarray format, ref [29]; cited from earlier work
Gal-1, His52 mutant = conditions: mutagenesis of His52 enabled binding of TF; ref [16]; cited from earlier work
[5] = test system: Gal-1 CRD in Gal-1/Gal-3 heterodimers; conditions: sequential model, at full loading, ref [48]; cited from earlier work
Galectin-3 = Galectin-3 (UniProt P17931 1-250); experiment: ITC
Galectin-1 = Galectin-1 (human, UniProt P09382 1-135); experiment: ITC
[6] = molecular target: histidine-tagged Galectin-1 (human, UniProt P09382 1-135); experiment: ITC
[7] = ITC, 25 °C, one-set-of-sites model
[8] = ITC, PEAQ-ITC, 25 °C, 20 mM phosphate, 10 mM NaCl, 10 mM β-mercaptoethanol, pH 7.2, one-set-of-sites model, [ligand] mM/[cell] μM: LacNAc 6.0/140, lactose 8.0/80, ASF 218/61 (so in the source), TF and Thr-TF 6.0/50
[9] = ITC, 25 °C, pH 7.2, ASF at 0.525 mM
[10] = second ASF titration: 0.700 mM ASF, 200 μM His-tag-Gal-1, ITC, 25 °C, pH 7.2

histidine-tagged Galectin-1, sequence (P09382 whole entry): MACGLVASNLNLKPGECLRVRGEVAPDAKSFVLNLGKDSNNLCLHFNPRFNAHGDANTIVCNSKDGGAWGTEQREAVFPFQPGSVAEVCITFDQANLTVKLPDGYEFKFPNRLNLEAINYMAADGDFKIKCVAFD
T1 sequence (P09382 whole entry): as above
his-tagged Gal-1, sequence (P09382 whole entry): as above
T2 sequence (P17931 whole entry): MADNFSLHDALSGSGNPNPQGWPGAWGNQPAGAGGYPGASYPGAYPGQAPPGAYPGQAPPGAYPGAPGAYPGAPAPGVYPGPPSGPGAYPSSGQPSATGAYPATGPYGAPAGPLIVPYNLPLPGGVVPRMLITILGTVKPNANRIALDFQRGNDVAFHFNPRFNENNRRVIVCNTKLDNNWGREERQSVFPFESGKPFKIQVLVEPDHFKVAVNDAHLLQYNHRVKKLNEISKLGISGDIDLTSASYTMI
Galectin-1, sequence (P09382 whole entry): as the sequence (P09382 whole entry) above
Galectin-3, sequence (P17931 whole entry): as the sequence (P17931 whole entry) above

Molecule | Kd in HEPES buffer (values not given) (Gal-1 (Galectin-1) [1]) | Gal-1 binding affinity in words (Gal-1 (Galectin-1) [1]; 25 °C) | −TΔS (Gal-1 (Galectin-1) [1]; [7]) [kJ/mol] | −ΔG (Gal-1 (Galectin-1) [1]; [7]) [kJ/mol] | Ka (Gal-1 (Galectin-1) [1]; [8]) [M⁻¹] | Kd (Gal-1 (Galectin-1) [1]; [8]) [mM] | −TΔS (his-tagged Gal-1; [9]) [kJ/mol] | −ΔG (his-tagged Gal-1; [9]) [kJ/mol] | agreement of titrations (his-tagged Gal-1) | −ΔH (Gal-1 (Galectin-1) [1]; [7]) | n-value (Gal-1 (Galectin-1) [1]) | −ΔH (his-tagged Gal-1; [9]) | n (binding stoichiometry) (his-tagged Gal-1; [9]) | further results
ASF: Asialofetuin from fetal calf serum Type 1, a glycoprotein with three triantennary LacNAc presentations | mirrored the values obtained in phosphate buffer | remained in the uM range; also recorded: low micromolar affinity | 244 | 29.9 | 174000 | 0.00576 | 210 | 30.8 | in agreement with values obtained for Gal-1 and previously reported value | – | – | – | – | Ka (his-tagged Gal-1; [10]): 340100 M⁻¹; Kd (his-tagged Gal-1; [10]): 2.94 µM; −TΔS (his-tagged Gal-1; [10]): 208 kJ/mol; −ΔG (his-tagged Gal-1; [10]): 31.6 kJ/mol
CC(=O)N[C@H]1C(O)O[C@H](CO)[C@@H](O[C@@H]2O[C@H](CO)[C@H](O)[C@H](O)[C@H]2O)[C@@H]1O (some centres unmarked) [LacNAc, N-Acetyllactosamine] | mirrored the values obtained in phosphate buffer | – | 18.4 | 23.3 | 12000 | 0.083 | 17.9 | 23.1 | in agreement with values obtained for Gal-1 and previously reported value | 9.97 (± 0.151) kcal/mol | 2 | 9.79 (± 0.206) kcal/mol | 2.02 | Gal-3 affinity relative to Gal-1 (Gal-3 (Galectin-3) [2]): ~2 x
OC[C@H]1O[C@@H](O[C@H]2[C@H](O)[C@@H](O)C(O)O[C@@H]2CO)[C@H](O)[C@@H](O)[C@H]1O (mixture of isomers) [Lactose, lactose] | – | – | 29.7 | – | – | – | 16.9 | – | in agreement with values obtained for Gal-1 and previously reported value | 11.9 (± 0.906) kcal/mol | 2 | 8.67 (± 1.43) kcal/mol | 2.05 | –
CC(=O)N[C@@H](C=O)[C@@H](O[C@@H]1O[C@H](CO)[C@H](O)[C@H](O)[C@H]1O)[C@@H](O)[C@H](O)CO [TF, 2-Acetamido-2-deoxy-3-O-β-D-galactopyranosyl-D-galactose] | – | – | 56.1 | 13.8 | 260 | – | – | – | – | 16.7 (± 0.221) kcal/mol | – | – | – | Kd (Gal-1 (Galectin-1) [1]): 3.8 mM; Gal-1 binding affinity in words (Gal-1 (Galectin-1) [1]; 25 °C, listed as TF disaccharide): binding by Gal-1 in mM range; also recorded: failed to recognize TF disaccharide and Thr-TF (TF antigen) beyond the millimolar affinity; Gal-1 recognition of TF antigen by ITC (Bian et al.) (Gal-1 (Galectin-1) [3]): failed to observe Gal-1 recognition of the TF antigen in solution beyond millimolar affinity; Thermodynamic driving force of Gal-3 binding (Gal-3 (Galectin-3) [4]): enthalpy-driven; Gal-1 binding to TF antigen, glycan microarray (Gal-1): did not bind significantly; Affinity of TF for His52-mutated Gal-1 (Gal-1, His52 mutant): high μM affinity; Affinity of the Gal-1 CRD for TF [5]: high mM range
CC(=O)NC1C(OC(C)C(N)C(=O)O)OC(CO)C(O)C1OC1OC(CO)C(O)C(O)C1O (centres unmarked) [Thr-TF, Gal1–3βGalNAcα1-O-Thr] | – | failed to recognize TF disaccharide and Thr-TF (TF antigen) beyond the millimolar affinity | 55.6 | 13.7 | 250 | 3.96 | – | – | – | 16.6 (± 0.269) kcal/mol | – | – | – | Gal-1 binding affinity in words (Gal-1 (Galectin-1) [1]; 25 °C, listed as Thr-TF antigen): binding by Gal-1 in mM range
B1 | – | – | – | – | – | – | – | – | – | – | – | – | – | fold affinity for ASF against Gal-1 (Galectin-3): ~12 fold; -dH (Galectin-1): 274 ± 5.94 kJ/mol; stoichiometry N (Galectin-1): 0.222; -dH [6]: 239 kJ/mol and 241 kJ/mol; stoichiometry N [6]: 0.274 and 0.283
